Reference: publication PMC10672241, “New Cyclopiane Diterpenes and Polyketide Derivatives from Marine Sediment-Derived Fungus Penicillium antarcticum KMM 4670 and Their Biological Activities” (Marine Drugs, 2023)
Where two headings read alike, the source gives them in different places.

How the values were obtained:
[1] = tested on: Staphylococcus aureus ATCC 21027; experiment: Antimicrobial activity: S. aureus growth (OD620, 96-well broth); type: cell-based; conditions: for inhibition at 12.5 µM / inhibition at 100 µM: Staphylococcus aureus; for inhibition at 12.5 µM: ATCC21027, 12.5 µM; for inhibition at 100 µM: ATCC21027, 100 µM
Method: (§1) The yeast-like fungi of Candida albicans KMM 455 and bacterial strains Staphylococcus aureus ATCC 21027 and Escherichia coli VKPM (B-7935) (Collection of Marine Microorganisms PIBOC FEB RAS) were cultured on solid medium Mueller Hinton broth with agar (16.0 g/L) in a Petri dish at 37 °C for 24 h.
(§2) The assays were performed in 96-well microplates in appropriate Mueller Hinton broth. Each well contained 90 µL of bacterial or of yeast-like fungi suspension (10^9 CFU/mL). Then, 10 µL of a compound diluted at concentrations from 1.5 µM to 100.0 µM using two-fold dilution were added (DMSO concentration <1%). Culture plates were incubated for 18 h at 37 °C, and the OD620 was measured using a Multiskan FS spectrophotometer (Thermo Scientific Inc., Beverly, MA, USA). The antibiotic gentamicin and the antifungal agent nitrofungin were used as positive controls at 1 mg/mL; 1% DMSO in PBS served as a negative control.

sortase A from S. aureus = target: T1, sortase A from S. aureus (Staphylococcus aureus, UniProt Q2FV99); experiment: Sortase A activity inhibition assay (SensoLyte 520 kit, cell-free); type: biochemical; conditions: for inhibition at 50 µM: read-out: inhibition of sortase A activity, 50 µM, after 10 min of incubation; for inhibition of sortase A activity: 50 µM, after 10 min of incubation
T1 construct: purchased AnaSpec AS-72229
Method: The enzymatic activity of sortase A from S. aureus was determined using SensoLyte 520 Sortase A Activity Assay Kit Fluorimetric (AnaSpec AS-72229, AnaSpec, San Jose, CA, USA) in accordance with the manufacturer’s instructions. […] DMSO at a concentration of 0.8% was used as a control. 4-(Hydroxymercuri)benzoic acid (PCMB) was used as sortase A enzyme activity inhibitor. Fluorescence was measured with a plate reader PHERAStar FS (BMG Labtech, Offenburg, Germany) for 60 min, with a time interval of 5 min. The data were processed with MARS Data Analysis v. 3.01R2 (BMG Labtech, Offenburg, Germany). The results were presented as relative fluorescent units (RFUs) and percentage of the control data, calculated using STATISTICA 10.0 software.

Candida albicans KMM 455 = experiment: Antimicrobial activity: C. albicans growth (OD620, 96-well broth); type: cell-based; conditions: for inhibition at 12.5 µM: KMM455, 12.5 µM
Method: as §1, §2

[2] = tested on: S. aureus biofilm formation; experiment: Crystal violet biofilm formation assay, S. aureus; type: cell-based, Staphylococcus aureus; conditions: for IC50: Staphylococcus aureus, read-out: half-maximal concentration (IC50) of the biofilm formation inhibition; for prevention of the biofilm formation of S. aureus: concentration not given
Method: (§3) The inhibition reducing biofilm formation and growth was assessed using the crystal violet biofilm assay as described. Overnight cultures of bacteria S. aureus and E. coli and yeast-like fungi C. albicans were inoculated into Mueller–Hinton broth at a concentration of 10^9 CFU/mL. A total of 90µL of this cell suspension was then dispensed into 96-well microtiter plates containing 10 µL of different concentrations of compounds 1–6. After 24 h growth at 37 °C, the plates were washed with PBS to remove unbound cells. Next, the wells were stained with 0.1% crystal violet solution for 10 min at 37 °C. At the completion of the incubation, plates were washed 3 times with PBS and dried. Then, the crystal violet dye from the biofilm was solubilized with 100 µL of ethanol. A total of 100 µL of this solution was then moved to a new microtiter plate for absorbance measurement at λ = 570 nm. The results were reported as percent inhibition normalized to the wild-type control.

[3] = tested on: Escherichia coli VKPM (B-7935); experiment: Antimicrobial activity: E. coli growth (OD620, 96-well broth); type: cell-based
Method: as §1, §2

[4] = H9c2 cell viability (MTT) assay; type: cell-based, rat; conditions: rat, H9c2 cardiomyocytes, 24 h, MTT
Method: (§4) The rat cardiomyocytes H9c2 cells were kindly provided by Prof. Dr. Gunhild von Amsberg from Martini-Klinik Prostate Cancer Center, University Hospital Hamburg-Eppendorf, Hamburg, Germany.
(§5) The H9c2 cells were cultured in DMEM medium (Biolot, St. Petersburg, Russia) containing 10% fetal bovine serum (Biolot, St. Petersburg, Russia) and 1% penicillin/streptomycin (Biolot, St. Petersburg, Russia) at 37 °C in a humidified atmosphere with 5% (v/v) CO2.
(§6) The H9c2 cells were seeded at concentrations of 3 × 10^3 cell/well, and the experiments were started after 24 h. The compounds at concentrations up to 100 µM were added into the wells for 24 h, and the viability of the cells was measured with an MTT (3-(4,5-dimethylthiazol-2-yl)-2,5-diphenyltetrazolium bromide) assay, which was performed according to the manufacturer’s instructions (Sigma-Aldrich, Munich, Germany). All compounds were dissolved with DMSO so that the final concentration of DMSO in the cell culture was not more than 1%. Moreover, DMSO was used as a control. The results were presented as a percent of the control data and calculated IC50.

H9c2 cardiomyocytes = experiment: H9c2 cell viability (MTT) assay; type: cell-based, rat; conditions: for Cell Viability: 24 h, MTT; for toxicity toward normal cardiomyocytes: at the concentrations in which they affected the growth of microorganisms
Method: as §4, §5, §6

Escherichia coli [5] = tested on: Escherichia coli; design: method as in PMID 31226283; conditions: bacterial suspension 10^6 CFU per milliliter; cited from earlier work
Staphylococcus aureus [6] = tested on: Staphylococcus aureus; design: method as in PMID 31226283; conditions: bacterial suspension 10^6 CFU per milliliter; cited from earlier work
Escherichia coli [7] = experiment: Literature antibacterial activity against Escherichia coli; type: cell-based; conditions: calculated from 50 μg/mL
Staphylococcus aureus [8] = experiment: Literature antibacterial activity against Staphylococcus aureus; type: cell-based; conditions: calculated from 100 μg/mL
[9] = tested on: E. coli biofilm formation; experiment: Crystal violet biofilm formation assay, E. coli; type: cell-based, Escherichia coli
Method: as §3

[10] = tested on: C. albicans biofilm formation; experiment: Crystal violet biofilm formation assay, C. albicans; type: cell-based, Candida albicans; conditions: for inhibition of C. albicans biofilm formation: concentrations from 12.5 to 100 µM
Method: as §3

[11] = in vivo assay; cited from earlier work
[12] = concentrations from 12.5 to 100 µM

T1 sequence (Q2FV99 whole entry): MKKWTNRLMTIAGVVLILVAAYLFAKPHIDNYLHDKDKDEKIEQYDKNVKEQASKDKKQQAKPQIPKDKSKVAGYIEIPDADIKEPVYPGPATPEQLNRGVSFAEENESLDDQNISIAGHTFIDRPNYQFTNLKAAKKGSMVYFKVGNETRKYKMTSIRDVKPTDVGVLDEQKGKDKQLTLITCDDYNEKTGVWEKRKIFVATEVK

| Compound | inhibition at 12.5 µM [1] [%] | inhibition at 100 µM [1] [%] | inhibition at 50 µM (sortase A from S. aureus) [%] | prevention of S. aureus biofilm formation ([2]; 100 µM) [%] | inhibition at 100 µM ([3]; Escherichia coli, 100 µM) [%] | viability at 24 h, 1 µM [4] [%] | viability at 24 h, 10 µM [4] [%] | viability at 24 h, 100 µM [4] [%] | inhibition of S. aureus growth ([1]; 12.5 µM) | inhibition at 12.5 µM ([3]; Escherichia coli, 12.5 µM) [%] | inhibition of C. albicans growth (Candida albicans KMM 455; [12]) | inhibition of C. albicans biofilm formation [10] | other results |
| --- | --- | --- | --- | --- | --- | --- | --- | --- | --- | --- | --- | --- | --- |
| CC12CC(=O)C(C)(C)C1C1CCC3(C)C(=O)C=CC(C)(O)C13C2 (stereo not shown) [Compound 1, 4-hydroxyleptosphin C] | 15.3 | 29.3 | 28.2 | 34.5 | 35.9 | 94.8 ± 5.9 | 65.7 ± 9.4 | 63.2 ± 0.5 |  |  |  |  | inhibition at 12.5 µM (Candida albicans KMM 455; Candida albicans): 30.4%; prevention of S. aureus biofilm formation ([2]; 12.5 µM): 15.9%; inhibition of E. coli growth ([3]; 12.5 µM): not observed; decrease in H9c2 cell viability (H9c2 cardiomyocytes; 10 µM): ~30%; decrease of H9c2 viability (H9c2 cardiomyocytes; 100 µM): ~30% |
| CC1C=CC(=O)C2(C)CCC3C4C(C)(CC(O)C4(C)C)CC132 (stereo not drawn) [Compound 2, 13-epi-conidiogenone F] |  | 19.1 |  | 52.6 | 27.3 | 98.1 ± 1.9 | 107 ± 7.8 |  | no effect |  |  |  | inhibition of sortase A activity (sortase A from S. aureus): 36.9%; inhibition at 12.5 µM (Candida albicans KMM 455; Candida albicans): 27.9%; prevention of S. aureus biofilm formation ([2]; 12.5 µM): 37.9%; IC50 [2]: 76.1 µM; inhibition of E. coli growth ([3]; 12.5 µM): not observed; decrease of H9c2 viability (H9c2 cardiomyocytes; 100 µM): ~30%; Cell Viability (H9c2 cardiomyocytes; 100 µM): 67.3 ± 3.1% |
| CC1C=CC(=O)C2(C)CCC3C4C(C)(CC(O)C4(C)C)CC132 (stereo not shown) [Compound 3, conidiogenone F] |  |  |  |  |  |  |  |  | did not influence | 24.3 |  |  | concentration of antibacterial activity against Escherichia coli (Escherichia coli [5]): 50 µg/mL; inhibition of S. aureus growth ([1]; 100 µM): 17.6%; inhibition of sortase A activity (sortase A from S. aureus): 13.1%; concentration of antibacterial activity against Staphylococcus aureus (Staphylococcus aureus [6]): > 100 µg/mL; concentration at which activity was recorded (E. coli) (Escherichia coli [7]): 166 µM; inhibition of C. albicans growth (Candida albicans KMM 455; 12.5 µM): 26.5%; prevention of S. aureus biofilm formation ([2]; only at concentrations of 50 µM and 100 µM): 10–15%; inhibition of E. coli growth ([3]; 100 µM): 36.4%; Cell Viability (H9c2 cardiomyocytes; 1 µM): 103.3 ± 3.2%; Cell Viability (H9c2 cardiomyocytes; 10 µM): 92.9 ± 2.5%; Cell Viability (H9c2 cardiomyocytes; 100 µM): 109.7 ± 9.2% |
| CC1C=CC(=O)C2(C)CCC3C4C(C)(CC(=O)C4(C)C)CC132 (stereo not shown) [Compound 4, leptosphin C] | 10.3 | 42.4 | 20 | 54.5 | 41.7 | 107 ± 2.9 | 102 ± 4.6 | 92.3 ± 1.9 |  | 7.2 | 38.7–44.8% | 30.6–36.4% | concentration of antibacterial activity against Escherichia coli (Escherichia coli [5]): > 100 µg/mL; concentration of antibacterial activity against Staphylococcus aureus (Staphylococcus aureus [6]): 100 µg/mL; concentration at which activity was recorded (S. aureus) (Staphylococcus aureus [8]): 333 µM; IC50 ([2]; S. aureus biofilm): 85.5 µM; effect on biofilm formation of E. coli (in words) [9]: affect the biofilm formation; prevention of E. coli biofilm formation ([9]; concentrations of 25–100 µM): 30–40%; effect on biofilm formation by C. albicans (in words) [10]: affected the biofilm formation |
| C[C@H]1CCC[C@H](C[C@@H](O)CC(=O)O)O1 [Compound 5, antaketide A] |  | 48.5 | 25.5 |  | 40.9 | 94.4 ± 3.1 | 88.5 ± 3.1 | 74.1 ± 4.9 | did not show any influence | 12.5 | 36.2–48.4% | did not affect | prevention of the biofilm formation of S. aureus [2]: 30–40%; effect on biofilm formation of E. coli (in words) [9]: affect the biofilm formation; prevention of E. coli biofilm formation ([9]; concentrations of 12.5–100 µM, respectively): 21–45%; toxicity toward normal cardiomyocytes (H9c2 cardiomyocytes): significant toxicity |
| C[C@H]1CCC[C@H](CC(=O)O)O1 [Compound 6, 2-((2R,6S)-6-methyltetrahydro-2H-pyran-2-yl)acetic acid] | 25.6 | 46.5 | 16.8 |  | 56.9 | 98.1 ± 1.6 | 80.9 ± 2.9 | 54.6 ± 2.1 |  | 27.7 | 34.7-52.1% | 14.7–23.1% | IC50 (Candida albicans KMM 455; Candida albicans, KMM455): 89.9 µM; prevention of the biofilm formation of S. aureus [2]: 30–40%; IC50 ([3]; Escherichia coli, read-out: IC50 of E. coli growth inhibition): 84.9 µM; toxicity toward normal cardiomyocytes (H9c2 cardiomyocytes): significant toxicity; effect on biofilm formation by C. albicans (in words) [10]: affected the biofilm formation |
| C[C@H]1CCC[C@H](C[C@H]2Cc3cc(O)cc(O)c3C(=O)O2)O1 [Compound 7, cladosporin] |  |  |  |  |  |  |  |  |  |  |  |  | clearance rate in the body [11]: high; oral bioavailability [11]: poor |
